Reference: patent US11230547B2, “Purine inhibitors of human phosphatidylinositol 3-kinase delta” (Merck Sharp & Dohme Corp., priority 2017, dated 2022)
pIC50: −log10 of the molar value.

Experiments:
PI3Kalpha = PI3Kalpha (Homo sapiens (Human), UniProt P42336); test: HTRF PI3K biochemical assay, alpha isoform (selectivity versus delta); details: relative ratio PI3K-alpha IC50 value / PI3K-delta IC50 value
Excerpt: (§1) HTRF PI3K Biochemical Assay to Measure Intrinsic Potency of Compound Inhibitors
(§2) The PI3-Kinase biochemical assays were developed to measure the intrinsic potency and compound dependent inhibition of the alpha, beta, delta, and gamma PI3K isoform enzymes. This assay was developed and further optimized from a kit produced by Upstate (Millipore catalog #33-047) (Millipore Sigma, Billerica Mass., USA) and has been configured for high throughput screening (HTS) and structure-activity relationship (SAR) screening. Briefly, this procedure exploits the exquisite specificity and high affinity binding of […] phosphatidyl(3,4,5)triphosphate (PIP3) to the GRP1 pleckstrin homology (PH) domain to generate the signal. In the absence of PIP3, an HTRF (Homogeneous Time-Resolved Fluorescence energy transfer) complex is formed consisting of europium (u)-labeled anti-GST, GST tagged GRP1-PH domain, biotin-PIP3 (biotinylated-PIP3) and streptavidin conjugated APC (Allophycocyanin). The native PIP3 produced by PI3-Kinase activity disrupts in a competitive manner the biotin-PIP3 from the pleckstrin homology (PH) domain, resulting in the loss of energy transfer (HTRF complex) and a decrease in the signal. The format of this assay is the same for all 4 isoforms of PI3K; the differences lie in the concentration of enzyme used to achieve robust assay window. The alpha, beta, and delta assays are run at 0.5, 1, and 0.3 nM enzymes and the gamma assay is run at 5 nM enzyme. The ATP concentration is 100 uM in the alpha, beta, and delta assays and 50 uM adenosine triphosphate (ATP) in the gamma assay. All reactions are run at 5 uM PIP2.
(§3) Compounds are serially diluted (3-fold in 100% DMSO) across a 384-well polypropylene source plated from column 3 to column 12 and column 13 to column 22, to yield 10 concentration dose response for each test compound. Columns 1, 2, 23 and 24 contain either only DMSO or pharmacological known control inhibitor. Once titrations are made, 2.5 nL of the compounds on 384 well plates are reformatted and transferred by acoustic dispense in quadruplicates to a 1536 assay plate (Greiner) to assay across all four PI3K isoform enzymes.
(§4) The PI3-Kinase biochemical assay was optimized using the HTRF kit provided by Upstate (Millipore). The assay kit contains six reagents: 1) 4× Reaction Buffer; 2) native PIP2 (substrate); 3) Stop (EDTA); 4) Detection Mix A (Streptavidin-APC); 5) Detection Mix B (Eu-labeled Anti-GST plus GST-tagged PH-domain); 6) Detection Mix C. In addition, the following items were obtained or purchased; PI3Kinase (catalog #'s alpha 14-602, beta 14-603, gamma 14-558 and delta 14-604 from Upstate Biotechnology now EMD Millipore, Mahopac, N.Y., USA), dithiothreitol (Sigma-Aldrich Corp. (St. Louis, Mo., USA) Catalog #D-5545), Adenosine-5′ triphosphate (InVitrogen (Waltham, Mass., USA), Cat#AS001A), native PIP3 (PI(3,4,5)P3, diC8, H^+, CELLSIGNALS, INC., (Columbus, Ohio, USA) Cat #907) DMSO ((Sigma-Aldrich Corp. (St. Louis, Mo., USA) Catalog #472301).
(§5) PI3Kinase Reaction Buffer is prepared by dilution the stock 1:4 with de-ionized water. DTT (DL-Dithiothreitol), phosphatidylinositol 4,5-bisphosphate (PIP2) and Biotin-PIP3 were added to 1536 assay plate at a final concentration of 5 mM, […] and 25 nM on the day of use. Enzyme addition and compound pre-incubation are initiated by the addition of 1.25 ul of PI3K (at twice its final concentration) in the 1× reaction buffer to all wells using a BioRaptr™ (Beckman Coulter, Waltham, Mass. USA). Plates are incubated at room temperature for 15 minutes. Reactions are initiated by addition of 1.25 ul of 2× substrate solution (PIP2 and ATP in 1× reaction buffer) using BioRaptr™. Plates are incubated in humidified chamber at room temperature for one hour. Reactions are quenched by addition of 0.625 uL of stop solution to all wells using the BioRaptr™. […]

PI3Kdelta = PI3Kdelta (Homo sapiens (Human), UniProt O00329); test: HTRF PI3K biochemical assay, delta isoform; details: 0.3 nM enzyme, 100 uM ATP, 5 uM PIP2, form screened per table
Chain of PI3Kdelta (O00329 whole entry, canonical isoform): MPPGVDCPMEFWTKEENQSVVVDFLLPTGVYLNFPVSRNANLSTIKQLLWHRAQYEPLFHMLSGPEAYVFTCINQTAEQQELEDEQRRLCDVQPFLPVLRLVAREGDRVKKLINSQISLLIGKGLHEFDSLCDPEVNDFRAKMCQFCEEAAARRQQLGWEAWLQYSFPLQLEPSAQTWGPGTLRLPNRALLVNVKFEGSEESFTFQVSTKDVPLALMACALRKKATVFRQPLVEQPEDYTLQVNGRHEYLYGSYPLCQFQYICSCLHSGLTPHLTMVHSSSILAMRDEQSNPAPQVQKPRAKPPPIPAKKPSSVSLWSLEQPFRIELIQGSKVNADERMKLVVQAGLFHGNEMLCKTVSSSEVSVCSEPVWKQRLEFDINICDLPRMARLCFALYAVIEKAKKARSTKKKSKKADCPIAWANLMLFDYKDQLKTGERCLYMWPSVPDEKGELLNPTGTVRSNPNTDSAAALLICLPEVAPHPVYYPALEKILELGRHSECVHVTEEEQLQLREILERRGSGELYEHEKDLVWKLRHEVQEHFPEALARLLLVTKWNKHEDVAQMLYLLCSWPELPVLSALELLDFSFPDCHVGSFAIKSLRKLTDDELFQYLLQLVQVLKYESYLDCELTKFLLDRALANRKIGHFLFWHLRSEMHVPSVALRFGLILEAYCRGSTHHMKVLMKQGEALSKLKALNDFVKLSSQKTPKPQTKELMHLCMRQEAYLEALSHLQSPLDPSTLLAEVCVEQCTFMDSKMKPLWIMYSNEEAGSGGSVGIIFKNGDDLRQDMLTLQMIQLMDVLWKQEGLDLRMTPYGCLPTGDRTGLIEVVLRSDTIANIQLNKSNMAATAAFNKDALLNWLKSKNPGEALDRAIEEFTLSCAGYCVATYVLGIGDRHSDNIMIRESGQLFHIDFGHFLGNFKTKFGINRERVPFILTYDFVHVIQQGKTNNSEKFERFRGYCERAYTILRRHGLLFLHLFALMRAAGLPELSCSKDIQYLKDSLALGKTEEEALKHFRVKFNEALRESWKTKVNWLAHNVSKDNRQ
Chain of PI3Kdelta (P27986 whole entry partner, canonical isoform): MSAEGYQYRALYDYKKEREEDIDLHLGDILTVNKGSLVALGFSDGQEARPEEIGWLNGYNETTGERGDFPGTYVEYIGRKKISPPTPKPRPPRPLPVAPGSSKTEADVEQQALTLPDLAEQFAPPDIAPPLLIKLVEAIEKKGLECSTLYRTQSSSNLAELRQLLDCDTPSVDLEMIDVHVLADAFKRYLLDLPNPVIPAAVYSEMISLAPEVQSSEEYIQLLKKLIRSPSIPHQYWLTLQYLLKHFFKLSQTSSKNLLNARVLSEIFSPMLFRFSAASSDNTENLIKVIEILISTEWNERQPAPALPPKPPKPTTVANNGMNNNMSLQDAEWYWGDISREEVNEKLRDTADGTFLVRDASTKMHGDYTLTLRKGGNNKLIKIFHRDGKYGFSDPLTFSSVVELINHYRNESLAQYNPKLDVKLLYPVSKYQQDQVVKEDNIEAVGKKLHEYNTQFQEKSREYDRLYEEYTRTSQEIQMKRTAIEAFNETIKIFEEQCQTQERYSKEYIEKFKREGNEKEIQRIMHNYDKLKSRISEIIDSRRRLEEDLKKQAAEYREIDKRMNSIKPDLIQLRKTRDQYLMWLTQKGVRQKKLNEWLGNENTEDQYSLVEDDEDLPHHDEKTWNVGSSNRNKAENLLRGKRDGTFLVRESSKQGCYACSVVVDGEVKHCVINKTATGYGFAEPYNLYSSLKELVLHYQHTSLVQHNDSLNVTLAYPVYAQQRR
Excerpt: as §1, §2, §3, §4, §5

Chain of PI3Kalpha (P42336 whole entry, canonical isoform): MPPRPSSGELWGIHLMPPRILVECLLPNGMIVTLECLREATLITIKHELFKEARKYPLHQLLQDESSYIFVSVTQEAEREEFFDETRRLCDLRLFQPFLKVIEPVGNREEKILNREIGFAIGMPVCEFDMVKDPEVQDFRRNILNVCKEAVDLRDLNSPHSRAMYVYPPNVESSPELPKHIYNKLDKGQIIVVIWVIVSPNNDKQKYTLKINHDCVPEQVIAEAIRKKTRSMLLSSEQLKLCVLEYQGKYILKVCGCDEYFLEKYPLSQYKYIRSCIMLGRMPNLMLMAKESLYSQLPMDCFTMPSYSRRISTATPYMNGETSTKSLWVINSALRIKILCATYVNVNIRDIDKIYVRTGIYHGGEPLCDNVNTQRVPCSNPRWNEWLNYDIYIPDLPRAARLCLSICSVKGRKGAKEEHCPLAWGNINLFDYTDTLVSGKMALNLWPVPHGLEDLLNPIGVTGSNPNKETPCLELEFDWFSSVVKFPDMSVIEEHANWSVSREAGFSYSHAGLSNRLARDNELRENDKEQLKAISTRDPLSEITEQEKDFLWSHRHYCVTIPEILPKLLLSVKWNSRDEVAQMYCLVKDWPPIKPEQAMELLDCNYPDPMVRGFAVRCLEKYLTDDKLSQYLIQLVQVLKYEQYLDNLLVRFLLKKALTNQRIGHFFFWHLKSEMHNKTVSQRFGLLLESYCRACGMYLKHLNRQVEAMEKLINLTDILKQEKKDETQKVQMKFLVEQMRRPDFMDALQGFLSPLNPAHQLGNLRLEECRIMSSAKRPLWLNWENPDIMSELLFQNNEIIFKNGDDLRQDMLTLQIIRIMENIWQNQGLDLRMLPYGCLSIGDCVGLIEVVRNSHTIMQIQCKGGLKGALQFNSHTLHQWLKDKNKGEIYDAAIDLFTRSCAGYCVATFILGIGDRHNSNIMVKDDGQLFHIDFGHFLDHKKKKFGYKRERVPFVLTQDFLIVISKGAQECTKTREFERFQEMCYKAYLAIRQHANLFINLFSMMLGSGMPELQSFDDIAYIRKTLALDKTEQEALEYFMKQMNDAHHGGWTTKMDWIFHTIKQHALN
Chain of PI3Kalpha (P27986 whole entry partner, canonical isoform): as the sequence (P27986 whole entry partner, canonical isoform) above

Structure (SMILES) | Selectivity versus PI3Kalpha (PI3Kalpha) | pIC50 (PI3Kdelta)
Cn1cc(-c2ncc(C#N)c(N3CC4C[C@H]3CN4C(=O)C3CCC3)n2)cn1 (stereo in doubt) [Compound 2-9, 4-[(1S,4R)-5-(cyclobutylcarbonyl)-2,5-diazabicyclo[2.2.1]hept-2-yl]-2-(1-methyl-1H-pyrazol-4-yl)pyrimidine-5-carbonitrile] | >10 | 6.48
Cn1cc(-c2ncc(C#N)c(N3CC4C[C@H]3CN4S(=O)(=O)C3CC3)n2)cn1 (stereo in doubt) [Compound 2-2, 4-[(1S,4R)-5-(cyclopropylsulfonyl)-2,5-diazabicyclo[2.2.1]hept-2-yl]-2-(1-methyl-1H-pyrazol-4-yl)pyrimidine-5-carbonitrile] | >10 | 5.92
COCCc1nc(N2CCN(C(=O)C3CC3)[C@H](C)C2)nc(-c2cnn(C)c2)c1C#N [Compound 6-12, 2-[(3R)-4-(cyclopropylcarbonyl)-3-methylpiperazin-1-yl]-4-(2-methoxyethyl)-6-(1-methyl-1H-pyrazol-4-yl)pyrimidine-5-carbonitrile] | >10 | 7.24
C[C@@H]1CN(c2nc(-c3cnn(C)c3)nc(NC(=O)NC3CCC3)c2C#N)CCN1C(=O)C1CC1 [Compound 6-17, 1-{5-cyano-6-[(3R)-4-(cyclopropylcarbonyl)-3-methylpiperazin-1-yl]-2-(1-methyl-1H-pyrazol-4-yl)pyrimidin-4-yl}-3-cyclobutylurea] | >10 | 8.30
C[C@@H]1CN(c2ncc(C#N)c(-c3cn(C)nc3C#N)n2)CCN1C(=O)C1CC1 [Compound 6-13, 4-(3-cyano-1-methyl-1H-pyrazol-4-yl)-2-[(3R)-4-(cyclopropylcarbonyl)-3-methylpiperazin-1-yl]pyrimidine-5-carbonitrile] | >10 | 6.74
C[C@@H]1CN(c2nc(-c3cnn4c3CCC4)ncc2C#N)CCN1C(=O)C1CC1 [Compound 6-15, 4-[(3R)-4-(cyclopropylcarbonyl)-3-methylpiperazin-1-yl]-2-(5,6-dihydro-4H-pyrrolo[1,2-b]pyrazol-3-yl)pyrimidine-5-carbonitrile] | >10 | 7.08
Cn1cc(-c2ncc(C#N)c(N3CC4C[C@H]3CN4C(=O)C(C)(C)CF)n2)cn1 (stereo in doubt) [Compound 2-6, 4-[(1S,4R)-5-(3-fluoro-2,2-dimethylpropanoyl)-2,5-diazabicyclo[2.2.1]hept-2-yl]-2-(1-methyl-1H-pyrazol-4-yl)pyrimidine-5-carbonitrile] | >10 | 6.80
COCC1(C(=O)N2C[C@@H]3CC2CN3c2nc(-c3cnn(C)c3)ncc2C#N)CC1 (stereo in doubt) [Compound 2-8, 4-[(1S,4R)-5-{[1-(methoxymethyl)cyclopropyl]carbonyl}-2,5-diazabicyclo[2.2.1]hept-2-yl]-2-(1-methyl-1H-pyrazol-4-yl)pyrimidine-5-carbonitrile] | >10 | 6.57
Cn1cc(-c2ncc(C#N)c(N3CC4C[C@H]3CN4c3cccc(-n4cccc4)c3)n2)cn1 (stereo in doubt) [Compound 1-9, 2-(1-methyl-1H-pyrazol-4-yl)-4-{(1S,4R)-5-[3-(1H-pyrrol-1-yl)phenyl]-2,5-diazabicyclo[2.2.1]hept-2-yl}pyrimidine-5-carbonitrile] | >10 | 7.05
Cc1nn(C)cc1-c1ncc(C#N)c(N2CCN(C(=O)C3CC3)[C@H](C)C2)n1 [Compound 6-28, 4-[(3R)-4-(cyclopropylcarbonyl)-3-methylpiperazin-1-yl]-2-(1,3-dimethyl-1H-pyrazol-4-yl)pyrimidine-5-carbonitrile] | >10 | 6.85
CC(C)C#Cc1cnc(N2CCN(C(=O)C3CC3)[C@H](C)C2)nc1-c1cnn(C)c1 [Compound 5-8, 2-[(3R)-4-(cyclopropylcarbonyl)-3-methylpiperazin-1-yl]-5-(3-methylbut-1-yn-1-yl)-4-(1-methyl-1H-pyrazol-4-yl)pyrimidine] | >10 | 7.92
Cn1cc(-c2ncc(C#N)c(N3CC4C[C@H]3CN4c3cccc(S(C)(=O)=O)c3)n2)cn1 (stereo in doubt) [Compound 1-15, 2-(1-methyl-1H-pyrazol-4-yl)-4-{(1S,4R)-5-[3-(methylsulfonyl)phenyl]-2,5-diazabicyclo[2.2.1]hept-2-yl}pyrimidine-5-carbonitrile] | >10 | 7.57
C[C@@H]1CN(c2nc(-c3cnn(C)c3)ncc2C#N)CCN1C(=O)C1CCCC1 [Compound 4-6, 4-[(3R)-4-(cyclopentylcarbonyl)-3-methylpiperazin-1-yl]-2-(1-methyl-1H-pyrazol-4-yl)pyrimidine-5-carbonitrile] | >10 | 6.06
C[C@@H]1CN(c2nc(-c3cnn(C(F)F)c3)ncc2C#N)CCN1C(=O)C1CC1 [Compound 6-30, 4-[(3R)-4-(cyclopropylcarbonyl)-3-methylpiperazin-1-yl]-2-[1-(difluoromethyl)-1H-pyrazol-4-yl]pyrimidine-5-carbonitrile] | >10 | 6.48
C[C@@H]1C[C@@H]1C(=O)N1CCN(c2nc(-c3cnn(C)c3)ncc2C#N)C[C@H]1C [Compound 4-9, 4-[(3R)-3-methyl-4-{[(1S,2R)-2-methylcyclopropyl]carbonyl}piperazin-1-yl]-2-(1-methyl-1H-pyrazol-4-yl)pyrimidine-5-carbonitrile] | >10 | 7.10
C[C@@H]1CN(c2nc(-c3cnn(C)c3)ncc2C#N)CCN1c1cccc(F)c1 [Compound 3-3, 4-[(3R)-4-(3-fluorophenyl)-3-methylpiperazin-1-yl]-2-(1-methyl-1H-pyrazol-4-yl)pyrimidine-5-carbonitrile] | >10 | 6.77
Cn1cc(-c2ncc(C#N)c(N3CC4C[C@H]3CN4S(=O)(=O)C3CCCC3)n2)cn1 (stereo in doubt) [Compound 2-15, 4-[(1S,4R)-5-(cyclopentylsulfonyl)-2,5-diazabicyclo[2.2.1]hept-2-yl]-2-(1-methyl-1H-pyrazol-4-yl)pyrimidine-5-carbonitrile] | >10 | 6.19
N#Cc1cnc(-c2cnn3ccccc23)nc1N1C[C@@H]2CC1CN2c1cccc(F)c1 (stereo in doubt) [Compound 1-2, 4-[(1R,4S)-5-(3-fluorophenyl)-2,5-diazabicyclo[2.2.1]hept-2-yl]-2-pyrazolo[1,5-a]pyridin-3-ylpyrimidine-5-carbonitrile] | >10 | 7.29
C[C@@H]1CN(c2ncc(C#N)c(-c3cn(C)nc3N)n2)CCN1C(=O)C1CC1 [Compound 6-14, 4-(3-amino-1-methyl-1H-pyrazol-4-yl)-2-[(3R)-4-(cyclopropylcarbonyl)-3-methylpiperazin-1-yl]pyrimidine-5-carbonitrile] | >10 | 7.68
CCNC(=O)N1C[C@@H]2CC1CN2c1nc(-c2cnn(C)c2)ncc1C#N (stereo in doubt) [Compound 2-4, (1R,4S)-5-[5-cyano-2-(1-methyl-1H-pyrazol-4-yl)pyrimidin-4-yl]-N-ethyl-2,5-diazabicyclo[2.2.1]heptane-2-carboxamide] | 5 | 5.66
